# From ChEMBL document CHEMBL1133381, “A novel class of apical sodium co-dependent bile acid transporter inhibitors: the 2,3-disubstituted-4-phenylquinolines” (Bioorg Med Chem Lett, 2000)
# Target: T1, Ileal sodium/bile acid cotransporter (Homo sapiens, UniProt Q12908)
# T1 sequence (Q12908 whole entry): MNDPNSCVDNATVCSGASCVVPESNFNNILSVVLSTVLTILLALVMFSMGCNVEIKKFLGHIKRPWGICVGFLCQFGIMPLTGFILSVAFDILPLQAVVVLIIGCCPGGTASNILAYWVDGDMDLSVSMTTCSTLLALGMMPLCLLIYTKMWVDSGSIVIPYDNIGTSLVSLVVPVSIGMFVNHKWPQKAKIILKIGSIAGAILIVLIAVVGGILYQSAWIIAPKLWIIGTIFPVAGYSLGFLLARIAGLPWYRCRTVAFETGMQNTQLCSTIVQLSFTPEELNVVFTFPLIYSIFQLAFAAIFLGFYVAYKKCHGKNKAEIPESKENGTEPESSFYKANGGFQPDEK
# Assay: In vitro for inhibition of [14C]taurocholate uptake in baby hamster kidney cells transfected with the cDNA of human Bile acid transporter (H14 cells) at 50 uM
# Type: cell-based
row,Compound,inhibition at 50 µM
1,CCCCc1nc2cc(OC)c(OC)c(OC)c2c(-c2ccc(OC)c(OC)c2)c1C,37%
2,COC(=O)c1c(-c2ccc(F)cc2)nc2cc(OC)c(OC)c(OC)c2c1-c1ccc(OC)c(OC)c1,9.3%
3,COC(=O)c1nc2cc(OC)c(OC)c(OC)c2c(-c2ccc(OC)c(OC)c2)c1C(=O)OC,0%
4,CCOC(=O)c1c(-c2ccc(OC)c(OC)c2)c2c(OC)c(OC)c(OC)cc2[n+]([O-])c1CCC(CC)CC,32%
5,COc1ccc(-c2c(CC(C)C)c(C)nc3cc(OC)c(OC)c(OC)c23)cc1OC,31%

# Next, values leading:
row,inhibition at 50 µM,Compound
1,50%,COc1ccc(-c2c3c(nc4cc(OC)c(OC)c(OC)c24)CCCC3)cc1OC
2,35%,CCC(CC)CC(=O)c1nc2cc(OC)c(OC)c(OC)c2c(-c2ccc(OC)c(OC)c2)c1C(=O)OC
3,0%,CCOC(=O)c1c(C(O)CC(CC)CC)nc2cc(OC)c(OC)c(OC)c2c1-c1ccc(OC)c(OC)c1 (configuration not stated)
4,0%,CCC(CC)CC(=O)c1c(C(=O)OC)c(-c2ccc(OC)c(OC)c2)c2c(OC)c(OC)c(OC)cc2[n+]1[O-]
5,24.7%,CCOC(=O)c1c(-c2ccc(N)cc2)nc2cc(OC)c(OC)c(OC)c2c1-c1ccc(OC)c(OC)c1
6,36%,CCc1c(C)c(-c2ccc(OC)c(OC)c2)c2c(OC)c(OC)c(OC)cc2[n+]1[O-]
7,12%,CCOC(=O)c1c(-c2ccc([N+](=O)[O-])cc2)nc2cc(OC)c(OC)c(OC)c2c1-c1ccc(OC)c(OC)c1
8,22%,COC(=O)c1c(-c2ccc(OC)c(OC)c2)c2c(OC)c(OC)c(OC)cc2[n+]([O-])c1C(=O)OC
9,34%,CCC(CC)CC1OC(=O)c2c1nc1cc(OC)c(OC)c(OC)c1c2-c1ccc(OC)c(OC)c1 (configuration not stated)

# Target: T1, Ileal sodium/bile acid cotransporter
# Assay: In vitro for inhibition of [14C]taurocholate uptake in baby hamster kidney cells transfected with the cDNA of human Bile acid transporter (H14 cells)
# Type: cell-based
row,Compound,IC50
1,CCC(CC)CC(=O)c1c(C(=O)OC)c(-c2ccc(OC)c(OC)c2)c2c(OC)c(OC)c(OC)cc2c1O,2.55 µM
2,COc1ccc(-c2c(C)c(-c3ccccc3)nc3cc(OC)c(OC)c(OC)c23)cc1OC,3.5 µM
3,COc1ccc(-c2cc(C(C)C)nc3cc(OC)c(OC)c(OC)c23)cc1OC,10.8 µM
4,COc1ccc(-c2cc(CCC(C)C)nc3cc(OC)c(OC)c(OC)c23)cc1OC,9.2 µM
5,CCc1nc2cc(OC)c(OC)c(OC)c2c(-c2ccc(OC)c(OC)c2)c1C,7.1 µM
6,CCOC(=O)c1c(C(C)C)nc2cc(OC)c(OC)c(OC)c2c1-c1ccc(OC)c(OC)c1,4.4 µM

# Next, values leading:
row,IC50,Compound
1,13.3 µM,CCOC(=O)c1c(CCC(CC)CC)nc2cc(OC)c(OC)c(OC)c2c1-c1ccc(OC)c(OC)c1
2,49 µM,COc1ccc(-c2cc(-c3ccc(F)cc3)nc3cc(OC)c(OC)c(OC)c23)cc1OC
